# Measurements taken from US20230233736A1, “ANTIMICROBIAL FORMULATIONS COMPRISING SILICONE” (AMICOAT AS, priority 2020, published 2023).
# Legend:
# [1] = system: Candida tropicalis; assay: MIC microbroth dilution (CLSI); assay type: cell-based; settings: ATCC750 - reference strain
# [2] = system: Aspergillus niger; assay: MIC microbroth dilution (CLSI); assay type: cell-based; settings: G.R. Micro collection
# [3] = system: Trichophyton mentagrophytes; assay: MIC microbroth dilution (CLSI); assay type: cell-based; settings: G.R. Micro collection
# [4] = system: Trichophyton interdigitale; assay: MIC microbroth dilution (CLSI); assay type: cell-based; settings: G.R. Micro collection
# [5] = system: Microsporum canis; assay: MIC microbroth dilution (CLSI); assay type: cell-based; settings: G.R. Micro collection
# [6] = system: Cryptococcus neoformans; assay: MIC microbroth dilution (CLSI); assay type: cell-based; settings: G.R. Micro collection
# [7] = system: Enterococcus gallinarum; assay: MIC microbroth dilution (CLSI); assay type: cell-based; settings: vancomycin-resistant (VanC) clinical isolate
# Description: (§1) Cation-adjusted Mueller-Hinton broth (Oxoid Ltd., Basingstoke, UK and Trek Diagnostic Systems Ltd., East Grinstead, UK) (supplemented with 5% laked horse blood for Streptococcus spp., Corynebacterium jeikeium and Listeria monocytogenes) was used for aerobic bacteria, with an initial inoculum of approximately 10^5 colony-forming units (CFU)/m L.
# [8] = system: Listeria monocytogenes; assay: MIC microbroth dilution (CLSI); assay type: cell-based; settings: antibiotic-susceptible clinical isolate
# Description: as §1
# [9] = system: Salmonella sp; assay: MIC microbroth dilution (CLSI); assay type: cell-based
# Description: as §1
# [10] = system: Shigella sp; assay: MIC microbroth dilution (CLSI); assay type: cell-based; settings: antibiotic-susceptible clinical isolate
# Description: as §1
# [11] = system: Staphylococcus saprophyticus; assay: MIC microbroth dilution (CLSI); assay type: cell-based; settings: antibiotic susceptible clinical isolate
# Description: as §1
# [12] = system: Stenotrophomonas maltophilia; assay: MIC microbroth dilution (CLSI); assay type: cell-based; settings: antibiotic-susceptible clinical isolate
# Description: as §1
# [13] = system: Staphylococcus aureus; assay type: cell-based
# Description: as §1
# (§2) To evaluate whether freezing affected the activity of the peptides some MIC determinations were repeated using plates containing freshly-prepared Mueller-Hinton broth.
# [14] = system: Enterobacter sp; assay type: cell-based
# Description: as §1
# [15] = system: Enterococcus faecium; assay type: cell-based
# Description: as §1
# [16] = system: Group G Streptococcus; assay type: cell-based
# Description: as §1
# [17] = system: Klebsiella aerogenes; assay type: cell-based
# Description: as §1
# [18] = system: Morganella morganii; assay type: cell-based
# Description: as §1
# [19] = system: Staphylococcus haemolyticus; assay type: cell-based
# Description: as §1
# [20] = system: Streptococcus agalactiae; assay type: cell-based
# Description: as §1
# [21] = system: Streptococcus pyogenes; assay type: cell-based
# Description: as §1
# [22] = system: Propionibacterium acnes; assay: MIC microbroth dilution (CLSI); assay type: cell-based
# Protocol: Supplemented Brucella broth (SBB) was used for the anaerobic strains with an inoculum of approximately 10^6 CFU/mL. SBB is a broth consisting of 1% peptone, 0.5% ‘Lab-lemco’, 1% glucose and 0.5% sodium chloride supplemented with 5 μg/L haemin and 1 μg/L vitamin K (both obtained from Sigma Aldrich Ltd.) Yeast and filamentous fungal MIC were performed in MOPS buffered RPMI 1640 medium (MOPS buffer obtained from Sigma Aldrich Ltd., RPMI 1640 obtained from Invitrogen Ltd, Paisley, Scotland). The yeast inocula were in the range 7.5×10^2-4×10^3 CFU/mL and the filamentous fungi approximately 8×10^3-1×10^5 CFU/mL
# MICs were determined as described in Example 2.
# [23] = system: C. albicans; assay: Antimicrobial assay, Table 5; assay type: cell-based
# [24] = system: S. pyogenes; assay: Antimicrobial assay, Table 5; assay type: cell-based
# [25] = system: E. coli; assay: Antimicrobial assay, Table 5; assay type: cell-based
# [26] = system: P. aeruginosa; assay: Antimicrobial assay, Table 5; assay type: cell-based
# [27] = system: Staphylococcus aureus FDA486; assay: Murine skin infection model, topical treatment; assay type: in vivo, mice
# Protocol: (§3) The skin of mice was infected with Staphylococcus aureus or Streptococcus pyogenes and subsequently given a total of three treatments at three hourly intervals. Three hours after the last treatment, skin biopsies were collected and the number of colony forming units (CFUs) present in the skin sample was determined. Results are shown in FIGS. 1 and 2, expressed as the number of colony forming units per mouse.
# In experiment 1 (FIG. 1), compound 2 was applied to the murine skin as part of either a cream or a gel containing 2% (w/w) of compound 2. The same cream or gel without compound 2 was used as a negative control (placebo).
# as §3, with “3, 4” for “1”, “5” for “2,”
# In experiment 1 (FIG. 3), compound 7 was applied to the murine skin as part of either a cream or a gel containing 2% (w/w) of compound 7. The same cream or gel without compound 7 was used as a negative control (placebo). Bactroban 2% cream was used as a positive control.
# In experiment 3 (FIG. 5), compound 8 was applied in a 2% cream formulation on a Staphylococcus aureus FDA 486 infection in the murine skin infection model. A placebo cream and two known antibacterials, “Fucidin (fucidic acid) ointment 2%” and “Bactroban (mupericin) cream 2%” were used as controls.
# [28] = system: Candida parapsilosis
# [29] = system: Staphylococcus aureus, strain ATCC 25923; settings: Table 5; strain ATCC 25923
# [30] = system: Methicillin resistant Staphylococcus aureus (MRSA) strain ATCC 33591; settings: Table 5; strain ATCC 33591
# [31] = system: Methicillin resistant Staphylococcus epidermidis (MRSE) strain ATCC 27626; settings: Table 5; strain ATCC 27626
# [32] = system: Enterococcus faecalis; assay type: cell-based; settings: vancomycin-resistant (VanB) clinical isolate
# Description: as §1, §2
# [33] = system: Corynebacterium jeikeium; assay type: cell-based
# Description: as §1
# [34] = system: Staphylococcus epidermidis; assay type: cell-based
# Description: as §1
# [35] = system: Streptococcus pyogenes; assay: Murine skin infection model, topical treatment; assay type: in vivo, mice; settings: FIG. 4, Streptococcus pyogenes CS 301
# Protocol: as §3
# In experiment 2 (FIG. 2), compound 2 was applied in two different concentrations, as either a 1% or a 2% gel. A placebo gel and a known antibacterial “bactroban” were used as controls.
# as §3, with “3, 4” for “1”, “5” for “2,”
# In experiment 2 (FIG. 4), compound 7 was applied in two different concentrations, as either a 1% or a 2% gel. A placebo gel and a known antibacterial “bactroban (mupericin)” were used as controls.
# [36] = system: Candida (Issatchenkia) krusei
# [37] = system: Clostridium perfringens; settings: antibiotic-susceptible clinical isolate
# [38] = antibiotic-susceptible clinical isolate
compound,measurement,setting,value
CCCCCCNC(=O)[C@H](CCCNC(=N)N)NC(=O)[C@H](Cc1c(C(C)(C)C)[nH]c2c(C(C)(C)C)cc(C(C)(C)C)cc12)NC(=O)[C@@H](N)CCCNC(=N)N [Compound 8],MIC,[1],4 µg/mL
same,MIC,[2],4 µg/mL
same,MIC,[3],4 µg/mL
same,MIC,[4],4 µg/mL
same,MIC,[5],4 µg/mL
same,MIC,[6],2 µg/mL
same,MIC,[7],4 µg/mL
same,MIC,[8],8 µg/mL
same,MIC,[9]; [38],8 µg/mL
same,MIC,[9]; multi-drug resistant clinical isolate,8 µg/mL
same,MIC,[10],4 µg/mL
same,MIC,[11],0.5 µg/mL
same,MIC,[12],4 µg/mL
same,MIC,[13],4 µg/mL
same,MIC,[14],8 µg/mL
same,MIC,[15],4 µg/mL
same,MIC,[16],8 µg/mL
same,MIC,[17],8 µg/mL
same,MIC,[18],8 µg/mL
same,MIC,[19],4 µg/mL
same,MIC,[20],8 µg/mL
same,MIC,[21],8 µg/mL
same,MIC,[22]; antibiotic-resistant clinical isolate,2 µg/mL
same,MIC,[22]; [38],4 µg/mL
same,C. albicans,[23],5 mg/L
same,S. pyogenes,[24],2 mg/L
same,E. coli,[25],5 mg/L
same,P. aeruginosa,[26],5 mg/L
same,number of colony forming units (CFU) in skin biopsy,"[27]; FIG. 5, 2% cream formulation",more effective at reducing the number of CFUs than the placebo and fucidin or bactroban
same,MIC,[28],8 µg/mL
same,S. aureus,[29],2 mg/L
same,MRSA,[30],2 mg/L
same,MRSE,[31],<1 mg/L
CC(C)NC(=O)[C@H](CCCNC(=N)N)NC(=O)[C@H](Cc1c(C(C)(C)C)[nH]c2c(C(C)(C)C)cc(C(C)(C)C)cc12)NC(=O)[C@@H](N)CCCNC(=N)N [Compound 7],MIC,[1],4 µg/mL
same,MIC,[3],8 µg/mL
same,MIC,[6],8 µg/mL
same,MIC,[7],8 µg/mL
same,MIC,[11],2 µg/mL
same,MIC,[32],≥128 µg/mL
same,MIC,[33],8 µg/mL
same,MIC,[34],4 µg/mL
same,MIC,[19],4 µg/mL
same,C. albicans,[23],25 mg/L
same,S. pyogenes,[24],<2 mg/L
same,E. coli,[25],7 mg/L
same,P. aeruginosa,[26],7 mg/L
same,number of colony forming units (CFU) in skin biopsy,"[27]; FIG. 3, cream or gel 2% (w/w), three treatments, compared to placebo",number of CFUs was reduced
same,"number of CFUs, 2% gel compared with 1% gel",[35],more effective than the gel containing only 1% of compound 7
same,number of colony forming units (CFU) in skin biopsy,[35]; 1% or 2% gel,more effective at reducing the number of CFUs from a Streptococcus pyogenes CS 301 infection than the placebo gel or the bactroban
same,MIC,[36],8 µg/mL
same,MIC,[37],≥128 µg/mL
same,S. aureus,[29],<2 mg/L
same,MRSA,[30],<2 mg/L
same,MRSE,[31],<2 mg/L
